Counter-ions that a name gives are not always drawn. Activity calls are given as the source filed them. The rule behind the calls is not given here.
Legend:
[1] = target: T1, Human immunodeficiency virus type 1 reverse transcriptase (Human immunodeficiency virus 1, UniProt Q72547); experiment: The compound was evaluated for the inhibition of HIV-1 reverse transcriptase
[2] = The compound was evaluated for antiviral activity using whole cell assay; type: functional
[3] = target: T1, Human immunodeficiency virus type 1 reverse transcriptase; experiment: The compound was evaluated for the inhibition of HIV-1 reverse transcriptase; Inactive
[4] = The compound was evaluated for antiviral activity using whole cell assay; Inactive; type: functional

Row | Structure (SMILES) | IC50 [1] [µM] | IC90 [2] [nM] | IC50 [3] | IC90 [4]
1 | O=S1(=O)Nc2ccc(Cl)cc2C(C#CC2CC2)(C2CC2)N1 (stereo not drawn) | 35.9 | 279 | – | –
2 | CC(C)Nc1cccnc1N1CCN(C(=O)c2cc3cc(NS(C)(=O)=O)ccc3[nH]2)CC1 [DELAVIRDINE MESYLATE] | – | 50 | – | –
3 | O=C1Nc2ccc(Cl)cc2[C@@](C#CC2CC2)(C(F)(F)F)O1 [EFAVIRENZ] | – | 1.7 | – | –
4 | CC(C)C#CC1(C2CC2)NS(=O)(=O)Nc2ccc(Cl)cc21 (stereo not drawn) | 4.63 | 182 | – | –
5 | CC(C)C#CC1(C(C)C)NS(=O)(=O)Nc2ccc(Cl)cc21 (stereo not drawn) | 0.137 | 643 | – | –
6 | CCC#CC1(C2CC2)NS(=O)(=O)Nc2ccc(Cl)cc21 (stereo not drawn) | – | 611 | Not Active | –
7 | Cc1ccnc2c1NC(=O)c1cccnc1N2C1CC1 [NEVIRAPINE] | – | 37 | – | –
8 | O=C1Nc2ccc(Cl)cc2[C@@](C#CC2CC2)(C(F)(F)F)N1 | 0.031 | 2 | – | –
9 | O=S1(=O)Nc2ccc(Cl)cc2C(C#Cc2ccccc2)(C2CC2)N1 (stereo not drawn) | – | – | Not Active | inactive
10 | CC(C)C1(C#CC2CC2)NS(=O)(=O)Nc2ccc(Cl)cc21 (stereo not drawn) | – | 677 | Not Active | –
11 | CCC#CC1(C(C)C)NS(=O)(=O)Nc2ccc(Cl)cc21 (stereo not drawn) | – | 961 | Not Active | –
12 | O=S1(=O)Nc2ccc(F)c(F)c2C(C#CC2CC2)(C(F)(F)F)N1 (stereo not drawn) | 24.7 | 284 | – | –
13 | O=S1(=O)Nc2ccc(Cl)cc2C(C#Cc2ccccn2)(C2CC2)N1 (stereo not drawn) | – | – | Not Active | inactive

— ChEMBL document CHEMBL1133068, “Novel 2,2-dioxide-4,4-disubstituted-1,3-H-2,1,3-benzothiadiazines as non-nucleoside reverse transcriptase inhibitors” (Bioorg Med Chem Lett, 2000)
